From patent US4542169A, “Biomedical devices containing isothiazolones to control bacteria growth” (Rohm and Haas Company, priority 1983, dated 1985)
In brackets after ≈: the same amount, converted by molar mass.

Columns and labels:
Staphylococcus aureus = assay: Minimum inhibitory concentration, bacteriostatic activity; format: cell-based; conditions: Table III: Active Ingredient MIC
S.a. = assay: Zone of inhibition, silicone rubber film discs on inoculated agar; format: cell-based, Staphlococcus aureus; conditions: for Zones: Silicone; for Zones / Zone of Inhibition: S.a.; for Zone of Inhibition: silicone rubber film
Text: (§1) The films were cut into 1.25 cm discs and placed in agar plates inoculated with Staphlococcus aureus (S.a) or Echerichia coli (E.c.).
(§2) The films were cut into discs and tested as in example one against S.a. and E.c.

Escherichia coli = assay: Minimum inhibitory concentration, bacteriostatic activity; format: cell-based; conditions: Table III: Active Ingredient MIC
fungi = assay: Observation of incubated plates (antibiotics vs Compound 1): fungal overgrowth; format: cell-based; conditions: as the plates were allowed to incubate
Aspergillis niger (A.n.) [1] = assay: Zone of inhibition, polyvinyl chloride film; format: cell-based; conditions: PVC film
Solubility in H2O = format: physicochemical; conditions: water
[2] = system: Pseudomonas aeruginosa (P.a.); assay: Zone of inhibition, polyvinyl chloride (vinyl) film discs; format: cell-based; conditions: vinyl film
Experimental: (§3) In a two-liter, three-necked, round-bottom, flask equipped with a mechanical stirrer was placed 100 g of polyvinyl chloride, 590 g of reagent grade tetrahydrofuran, and 40.0 g of dioctylphthalate. This was stirred with gentle heating (35°-40° C.) for two hours to completely dissolve the polyvinyl chloride. Then, a barium/calcium salt of a fatty acid (3.5 g), a phosphite chelating agent (1.5 g), stearic Acid (0.25 g) and epoxidized soy bean oil (7.5 g), were mixed with 21 g of tetrahydrofuran and added to the polyvinyl chloride solution. After stirring at room temperature for 30 minutes, the solution was ready for use.
as §1
Discs were tested against Pseudomonas aeruginosa (P.a.). The 1.0% films gave a slight zone of inhibition while the 5.0% film gave a 1 mm zone of inhibition.

Pseudomonas aeruginosa = assay: Minimum inhibitory concentration, bacteriostatic activity; format: cell-based; conditions: Table III: Active Ingredient MIC
sessile colonization = assay: Implanted polyvinyl chloride coated pacemakers in dogs, growth after one month; format: in vivo; conditions: for Agar culture / Visual Observation: PVC-coated pacemaker, one month
Text: The devices are inserted into dogs and allowed to remain without electrical activation for a period of one month. The devices are then removed and examined visually and by agar cultures from the surface.

Aspergillis niger (A.n.) [3] = assay: Growth of fungus on polyvinyl chloride film; format: cell-based; design: key: 0: zero (no growth); 5: five (heavy growth); conditions: PVC film
Experimental: as §3
(§4) Films containing the isothiazolones were cast by first preparing a 0.5 weight percent polyvinyl chloride solution by adding the isothiazolone to the polyvinyl chloride solution. Then, portions of the 0.5% solution were diluted to 0.1 and 0.05%. The films were drawn down on 12"×12" glass plates using a 50 mil-3" wide coating bar and the films were allowed to air dry for 48 hours.
(§5) In addition to zones of inhibition, the films were observed by growth of fungus on the film and rated from zero (no growth) to five (heavy growth).

[4] = system: Aerobasidium pullulans (A.p); assay: Growth of fungus on polyvinyl chloride film; format: cell-based; design: key: 0: zero (no growth); 5: five (heavy growth); conditions: PVC film
Experimental: as §3, §4, §5

Candida albicans (yeast) = assay: Minimum inhibitory concentration, fungistatic activity; format: cell-based; conditions: Table III: Active Ingredient MIC
E.c. = assay: Zone of inhibition, silicone rubber film discs on inoculated agar; format: cell-based, Echerichia coli; conditions: for Zones: Silicone; for Zone of Inhibition: silicone rubber film
Text: as §1, §2

Echerichia coli (E.c.) = assay: Zone of inhibition, polyvinyl chloride film discs on inoculated agar; format: cell-based; conditions: PVC film
Experimental: as §3, §4, §1

[5] = system: Staphlococcus aureus (S.a); assay: as above; format: cell-based; conditions: PVC film
Experimental: as §3, §4, §1

[6] = system: Aerobasidium pullulans (A.p); assay: Zone of inhibition, polyvinyl chloride film; format: cell-based; conditions: PVC film
[7] = system: resistant bacterial colonies; conditions: with time
Aspergillus niger = assay: Minimum inhibitory concentration, fungistatic activity; format: cell-based; conditions: Table III: Active Ingredient MIC
Aureobasidium pullulans = assay: as above; format: cell-based; conditions: Table III: Active Ingredient MIC
P.a. = assay: Zone of inhibition, silicone film; format: cell-based, Pseudomonas aeruginosa
[8] = system: sessile colonization by bacteria or fungi; assay: Implanted silicone rubber urinary catheters in dogs, growth after one week; format: in vivo; conditions: silicone catheter; for Agar culture / Visual Examination: one week
Text: These are inserted into large male dogs held in restraining harnesses. The catheters are examined for visible growth and cultured onto agar over a period of one week.

O=c1c(Cl)c(Cl)sn1C1CCCCC1 [Compound 1, 4,5-Dichloro-N--cyclohexyl-isothiazolin-3-one]
MIC (Staphylococcus aureus): 10 µg/mL (≈ 39.7 µM) | bacteriocide activity compared with the best commercial antibiotics (S.a.; PVC and silicone films, Table E): essential equivalency | Zones (S.a.; 1.0%): 20.3 mm | Zones (S.a.; 5.0%): 20.3 mm | Zones (S.a.; .20%): 17.8 mm | Zone of Inhibition (S.a.; Conc. 10): 0.8 mm | Zone of Inhibition (S.a.; Conc. 100): 6.8 mm | Zone of Inhibition (S.a.; Conc. 1000): 16.3 mm | MIC (Escherichia coli): 16 µg/mL (≈ 63.5 µM) | overgrowth of plates by fungi (fungi): clean | Zone of Inhibition (Aspergillis niger (A.n.) [1]; 0.05%): 0 mm | Zone of Inhibition (Aspergillis niger (A.n.) [1]; 0.1%): 0 mm | Zone of Inhibition (Aspergillis niger (A.n.) [1]; 0.5%): 5.3 mm | solubility (Solubility in H2O): 91 µg/mL (≈ 361 µM) | Zone of Inhibition ([2]; 1.0% by weight): slight | Zone of Inhibition ([2]; 5.0% by weight): 1 mm | MIC (Pseudomonas aeruginosa): 62 µg/mL (≈ 246 µM) | Agar culture (sessile colonization; 0.05%): +3 | Visual Observation (sessile colonization; 0.05%): slime covered | Agar culture (sessile colonization; 0.1%): +1 | Visual Observation (sessile colonization; 0.1%): slight slime layer | Agar culture (sessile colonization; 0.5%): trace | Visual Observation (sessile colonization; 0.5%): clean | Agar culture (sessile colonization; 1.0%): 0 | Visual Observation (sessile colonization; 1.0%): clean | efficacy in resisting sessile colonization (sessile colonization; treated polyvinyl chloride, compared to untreated control): resisting sessile colonization, particularly as compared to untreated control | Growth on Film (Aspergillis niger (A.n.) [3]; 0.05%): 1 | Growth on Film (Aspergillis niger (A.n.) [3]; 0.1%): 0 | Growth on Film (Aspergillis niger (A.n.) [3]; 0.5%): 0 | Growth on Film ([4]; 0.05%): 0 | Growth on Film ([4]; 0.1%): 0 | Growth on Film ([4]; 0.5%): 0 | MIC (Candida albicans (yeast)): 0.5 µg/mL (≈ 1.98 µM) | Zones (E.c.; 1.0%): 16.3 mm | Zones (E.c.; 5.0%): 16.3 mm | Zones (E.c.; .20%): 14.3 mm | Zone of Inhibition (E.c.; Conc. 10): 0.1 mm | Zone of Inhibition (E.c.; Conc. 100): 5.5 mm | Zone of Inhibition (E.c.; Conc. 1000): 13.0 mm | Zone of Inhibition (Echerichia coli (E.c.); 0.05%): 0.8 mm | Zone of Inhibition (Echerichia coli (E.c.); 0.1%): 1.8 mm | Zone of Inhibition (Echerichia coli (E.c.); 0.5%): 4.8 mm | Zone of Inhibition ([5]; 0.05%): 1.8 mm | Zone of Inhibition ([5]; 0.1%): 4.3 mm | Zone of Inhibition ([6]; 0.05%): 0 mm | Zone of Inhibition ([6]; 0.1%): 0 mm | Zone of Inhibition ([6]; 0.5%): 5.3 mm | resistant bacterial colonies on plates [7]: ability to suppress all species and not permit the growth of antibiotic resistant species | MIC (Aspergillus niger): 0.5 µg/mL (≈ 1.98 µM) | MIC (Aureobasidium pullulans): 0.5 µg/mL (≈ 1.98 µM) | Zones (P.a.; 1.0%): 3.3 mm | Zones (P.a.; 5.0%): 3.3 mm | Zones (P.a.; .20%): 0.8 mm | efficacy in resisting sessile colonization [8]: resisting sessile colonization by bacteria or fungi | Agar culture ([8]; 0.05% by weight): +2 | Visual Examination ([8]; 0.05% by weight): slight slime | Agar culture ([8]; 0.1% by weight): +1 | Visual Examination ([8]; 0.1% by weight): clean | Agar culture ([8]; 0.5% by weight): 0 | Visual Examination ([8]; 0.5% by weight): clean | Agar culture ([8]; 1.0% by weight): 0 | Visual Examination ([8]; 1.0% by weight): clean
